How the values were obtained:
Format in all cases: in vivo, Swiss-Webster mice
neutrophils [1] = assay: Neutrophils by complete blood count on day 8, dosing day 1, 3, 5; details: mice, oral gavage, measured on day 8
monocytes = assay: Monocytes by complete blood count on day 8, dosing day 1, 3, 5; details: mice, oral gavage, measured on day 8; for change in vivo at 100 mg/kg / change in vivo at 200 mg/kg: Mus musculus, Monocyte, 192 h, read-out: Monocytes % Increase Over Control
lymphocytes = assay: Lymphocytes by complete blood count on day 8, dosing day 1, 3, 5; details: mice, oral gavage, measured on day 8; for change in vivo at 100 mg/kg / change in vivo at 200 mg/kg: Mus musculus, Lymphocyte, 192 h, read-out: Lymphocytes % Increase Over Control
Protocol: (§1) To examine the effect of compounds and methods of the present invention on increasing white blood cells, the following studies were performed. In one series of experiments, male Swiss-Webster mice were administered various compounds of the present invention via oral gavage using a ball-tipped gavage needle. […] Animals were dosed once daily for 3 or 4 days. Six hours after the final dosing, 200 μl blood samples were collected and total white blood cell, neutrophil, and lymphocyte levels were measured by complete blood count (CBC) using a CellDyn cell analyzer (Abbott Laboratories).
(§2) In another series of experiments, male Swiss-Webster mice were administered various compounds (see Table 7 and Table 8) of the present invention via oral gavage using a ball-tipped gavage needle. […] Total WBC, neutrophil, lymphocyte, and monocyte levels were measured in mice as described above on day 8 following administration of compound on day 1, day 3, and day 5.

[2] = system: total white blood cell (WBC); assay: Total white blood cells by complete blood count on day 8, dosing day 1, 3, 5; details: Mus musculus, 192 h, mice, oral gavage, measured on day 8, read-out: Total WBC % Increase Over Control; for change in vivo at 100 mg/kg: 100 mg/kg on day 1, day 3 and day 5; for change in vivo at 200 mg/kg: 200 mg/kg on day 1, day 3 and day 5
Protocol: as §1, §2

neutrophils [3] = assay: Neutrophils by complete blood count on day 8, dosing day 1, 3, 5; details: Mus musculus, Neutrophil, 192 h, mice, oral gavage, measured on day 8, read-out: Neutrophils % Increase Over Control; for change in vivo at 100 mg/kg: 100 mg/kg on day 1, day 3 and day 5; for change in vivo at 200 mg/kg: 200 mg/kg on day 1, day 3 and day 5
Protocol: as §1, §2

[4] = system: total white blood cell (WBC); assay: Total white blood cells by complete blood count on day 8, dosing day 1, 3, 5; details: mice, oral gavage, measured on day 8
[5] = 100 mg/kg on day 1, day 3 and day 5
[6] = 200 mg/kg on day 1, day 3 and day 5

Row | Compound | Neutrophils (neutrophils [1]; [5]) | change in vivo at 100 mg/kg (monocytes; [5]) [%] | Monocytes (monocytes; [5]) | change in vivo at 100 mg/kg (lymphocytes; [5]) [%] | Lymphocytes (lymphocytes; [5]) | change in vivo at 100 mg/kg [2] [%] | change in vivo at 100 mg/kg (neutrophils [3]) [%] | Total WBC [4, 5] | Neutrophils (neutrophils [1]; [6]) | change in vivo at 200 mg/kg (monocytes; [6]) [%] | Monocytes (monocytes; [6]) | change in vivo at 200 mg/kg (lymphocytes; [6]) [%] | Lymphocytes (lymphocytes; [6]) | change in vivo at 200 mg/kg [2] [%] | change in vivo at 200 mg/kg (neutrophils [3]) [%] | Total WBC [4, 6]
1 | N#Cc1nc(C(=O)NCC(=O)O)c(O)c2ccn(Cc3ccccc3F)c12 [Compound I, {[7-Cyano-1-(2-fluoro-benzyl)-4-hydroxy-1H-pyrrolo[2,3-c]pyridine-5-carbonyl]-amino}-acetic acid] | 0.8 10^3 cells/μl | 425 | 0.2 10^3 cells/μl | 127 | 12.1 10^3 cells/μl | 95 | 17 | 13.1 10^3 cells/μl | – | – | – | – | – | – | – | –
2 | Cc1cccc(C)c1Oc1ccc2c(O)c(C(=O)NCC(=O)O)nc(C#N)c2c1 [Compound AI, {[1-Cyano-7-(2,6-dimethyl-phenoxy)-4-hydroxy-isoquinoline-3-carbonyl]-amino}-acetic acid] | 0.7 10^3 cells/μl | 0 | 0.1 10^3 cells/μl | 303 | 17.4 10^3 cells/μl | 266 | 45 | 18.3 10^3 cells/μl | – | – | – | – | – | – | – | –
3 | Cc1nc(C(=O)NCC(=O)O)c(O)c2ccc(Cl)cc12 [Compound Y, [(7-Chloro-4-hydroxy-1-methyl-isoquinoline-3-carbonyl)-amino]-acetic acid] | – | – | – | – | – | – | – | – | 1.9 10^3 cells/μl | 700 | 0.2 10^3 cells/μl | 17 | 7.6 10^3 cells/μl | 34 | 200 | 9.8 10^3 cells/μl
4 | N#Cc1nc(C(=O)NCC(=O)O)c(O)c2c(Oc3ccc(F)cc3)cccc12 [Compound G, {[1-Cyano-5-(4-fluoro-phenoxy)-4-hydroxy-isoquinoline-3-carbonyl]-amino}-acetic acid] | – | – | – | – | – | – | – | – | 0.8 10^3 cells/μl | 317 | 0.2 10^3 cells/μl | 148 | 13.2 10^3 cells/μl | 138 | 48 | 14.3 10^3 cells/μl
5 | C[C@@H](c1ccccc1)n1c(Cl)c(Cl)c2c(O)c(C(=O)NCC(=O)O)nc(C#N)c21 [Compound AL, {[(S)-2,3-Dichloro-7-cyano-4-hydroxy-1-(1-phenyl-ethyl)-1H-pyrrolo[2,3-c]pyridine-5-carbonyl]-amino}-acetic acid] | – | – | – | – | – | – | – | – | 2.8 10^3 cells/μl | 33 | 0.1 10^3 cells/μl | 205 | 15.3 10^3 cells/μl | 207 | 265 | 18.2 10^3 cells/μl
6 | N#Cc1nc(C(=O)NCC(=O)O)c(O)c2c(Cl)cn(Cc3ccc(-c4ccccc4)cc3)c12 [Compound AW, [(1-Biphenyl-4-ylmethyl-3-chloro-7-cyano-4-hydroxy-1H-pyrrolo[2,3-c]pyridine-5-carbonyl)-amino]-acetic acid] | – | – | – | – | – | – | – | – | 4.7 10^3 cells/μl | 100 | 0.2 10^3 cells/μl | 635 | 34.1 10^3 cells/μl | 616 | 604 | 39.1 10^3 cells/μl
7 | N#Cc1nc(C(=O)NCC(=O)O)c(O)c2c(Cl)cn(Cc3ccc(F)cc3)c12 [Compound P, {[3-Chloro-7-cyano-1-(4-fluoro-benzyl)-4-hydroxy-1H-pyrrolo[2,3-c]pyridine-5-carbonyl]-amino}-acetic acid] | 0.8 10^3 cells/μl | 33 | 0.1 10^3 cells/μl | 60 | 9.1 10^3 cells/μl | 54 | 18 | 10.2 10^3 cells/μl | – | – | – | – | – | – | – | –

Reference: patent US20110039879A1, “METHODS FOR INCREASING WHITE BLOOD CELLS” (FibroGen ,Inc., priority 2007, published 2011)
